Test results from patent US5053070A, “Pyrimidine derivatives, preparation processes thereof, herbicide containing the same, and herbicidal compositions containing the same along with other active ingredient” (Mitsui Toatsu Chemicals, Incorporated, priority 1988, dated 1991).

Experiments:
Type in all cases: in vivo
[1] = tested on: bulrush; assay: Treatment of soil under submerged condition, post-emergence (Test 5); conditions: 30 g ai/a granule, 30 days later
Procedure, shortened: (§1)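 Soil was filled into pots and kept submerged, and weed seeds or tubers were sown. Pairs of pre-reared rice seedlings at 2–3 leaves were then transplanted. A granule of the composition was applied at the barnyardgrass two-leaf stage, and plants were rated after 30 days.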

[2] = tested on: Sagittaria pygmaea; assay: as above; conditions: 30 g ai/a granule, 30 days later
Procedure, shortened: as §1

[3] = tested on: barnyardgrass; assay: as above; conditions: 30 g ai/a granule, post-emergence (barnyardgrass two-leaf stage), 30 days later
Procedure, shortened: as §1

[4] = tested on: cotton; assay: Upland foliar application test (Test 3), crop injury; conditions: 30 g ai/a, foliar spray at 2-3 leaves, 30th day
Procedure, shortened: (§2)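 Scores record the degree of damage to weeds and injury to crops, observed 30 days after treatment. Each species was seeded in pots of upland-field soil and raised under glass to 2-3 leaves, then its foliage was sprayed with diluted compound emulsion at 5 l per are.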

[5] = tested on: soybean; assay: as above; conditions: 30 g ai/a, foliar spray at 2-3 leaves, 30th day
Procedure, shortened: as §2

[6] = tested on: peanut; assay: as above; conditions: 30 g ai/a, foliar spray at 2-3 leaves, 30th day
Procedure, shortened: as §2

[7] = tested on: rice; assay: Treatment of soil under submerged condition, post-emergence (Test 5), injury; conditions: 30 g ai/a granule, 30 days later
Procedure, shortened: as §1

[8] = tested on: redroot pigweed; assay: Upland soil application test (Test 2); conditions: 30 g ai/a, soil spray before emergence, 30 days later
Procedure, shortened: (§3)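 Steps: fill pots with fertilized upland field soil containing uniformly mixed weed seed; sow crops and cover with 2-3 cm soil; after one day, spray the diluted wettable powder evenly over the soil at 10 l per are; assess at 30 days against untreated controls by dry weight.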

[9] = tested on: large crabgrass; assay: Upland soil application test (Test 2); conditions: 30 g ai/a, soil spray before emergence, 30 days later
Procedure, shortened: as §3

[10] = tested on: johnsongrass; assay: Upland soil application test (Test 2); conditions: 30 g ai/a, soil spray before emergence, 30 days later
Procedure, shortened: as §3

[11] = tested on: green foxtail; assay: Upland soil application test (Test 2); conditions: 30 g ai/a, soil spray before emergence, 30 days later
Procedure, shortened: as §3

[12] = tested on: foxtail meadow; assay: Upland soil application test (Test 2); conditions: 30 g ai/a, soil spray before emergence, 30 days later
Procedure, shortened: as §3

[13] = tested on: barnyardgrass; assay: Upland soil application test (Test 2); conditions: 30 g ai/a, soil spray before emergence, 30 days later
Procedure, shortened: as §3

[14] = tested on: common lambsquarters; assay: Upland soil application test (Test 2); conditions: 30 g ai/a, soil spray before emergence, 30 days later
Procedure, shortened: as §3

[15] = tested on: morningglories; assay: Upland foliar application test by mixed formulations (Test 7); conditions: Ipomoea, 720 h, applied alone, 1 kg/ha, 30th day, read-out: Herbicidal effects (%) Morningglory Ea
Procedure, shortened: (§4)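 Foliar spray of two-compound mixed emulsion, diluted with water, at 5 l per are via ULV sprayer onto weeds at 2–3 leaf stage in upland soil pots, greenhouse. Effect observed 30 days after spraying. Measured mixture activity (Ea) compared with Colby expected value (Ec) derived from single-ingredient growth inhibition rates.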

[16] = tested on: redroot pigweed; assay: as above; conditions: Amaranthus retroflexus, 720 h, applied alone, 1 kg/ha, 30th day, read-out: Herbicidal effects (%) Redrood pigweed Ea
Procedure, shortened: as §4

[17] = tested on: johnsongrass; assay: as above; conditions: Sorghum halepense, 720 h, applied alone, 1 kg/ha, 30th day, read-out: Herbicidal effects (%) Johnsongrass Ea
Procedure, shortened: as §4

[18] = tested on: green foxtail; assay: as above; conditions: Setaria viridis, 720 h, applied alone, 1 kg/ha, 30th day, read-out: Herbicidal effects (%) Green foxtail Ea
Procedure, shortened: as §4

[19] = tested on: rice; assay: Treatment of soil under submerged condition, pre-emergence (Test 4), injury; conditions: 30 g ai/a granule, 30 days later
Procedure, shortened: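 First, weed seeds or tubers are sown in soil kept submerged. Next, two pairs of rice seedlings at the 2–3 leaf stage are transplanted per pot and kept in a greenhouse. After one day, before weeds emerge, a granular formulation is applied; damage and injury are rated after 30 days.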

With CC#CCON=Cc1ccccc1Oc1nc(OC)cc(OC)n1 [compound 10] the “Herbicidal effects Bulrush” value [1] was 5 (0-5 (Death)), the “Herbicidal effects Sagittaria Pygmaea” value [2] was 5 (0-5 (Death)) and the “Herbicidal effects Barnyardgrass” value [3] was 5 (0-5 (Death)). The “Injury Cotton” value [4] was 0 (91-100 (No damages)), the “Injury Soybean” value [5] was 0 (91-100 (No damages)) and the “Injury Peanut” value [6] was 0 (91-100 (No damages)). The “Injury Rice” value [7] was 1 (71-90 (Slight damages)), the “Herbicidal effects Redroot pigweed” value [8] was 3 (11-40 (Medium damages)) and the “Herbicidal effects Large crabgrass” value [9] was 3 (11-40 (Medium damages)). The “Herbicidal effects Johnsongrass” value [10] was 4 (6-10 (Severe damages)), the “Herbicidal effects Green foxtail” value [11] was 4 (6-10 (Severe damages)) and the “Herbicidal effects Foxtail meadow” value [12] was 4 (6-10 (Severe damages)). The “Herbicidal effects Barnyardgrass” value [13] was 3 (11-40 (Medium damages)), the “Herbicidal effects Common lambsquarters” value [14] was 3 (11-40 (Medium damages)) and the pest or weed control at 1000 g/ha [15] was 0%. For the same compound, the pest or weed control at 1000 g/ha [16] was 10%, the pest or weed control at 1000 g/ha [17] was 20% and the pest or weed control at 1000 g/ha [18] was 20%. The “Injury Rice” value [19] was 1 (71-90 (Slight damages)).
